# Test results published in ChEMBL document CHEMBL3102745, “Inhibition of CK2: An Attractive Therapeutic Target for Cancer Treatment” (ACS Med Chem Lett, 2013).
# Key:
# HCT-116 = experiment: Antiproliferative activity against human HCT116 cells after 72 hrs by Alamar blue assay; format: functional; details: HCT-116, 72 h
# [1] = target: Casein kinase II subunit alpha (Homo sapiens) (UniProt P68400); experiment: Inhibition of N-terminal 6 X His-tagged recombinant human full length Casein Kinase 2 alpha subunit expressed in Sf21 insect cells using BODIPY-FL-RRRDDDSDDD-CONH2 as substrate preincubated for 20 mins measured after 90 mins by fluorescence-based assay
# Sequence of Casein kinase II subunit alpha (Homo sapiens) (P68400 whole entry, looked up): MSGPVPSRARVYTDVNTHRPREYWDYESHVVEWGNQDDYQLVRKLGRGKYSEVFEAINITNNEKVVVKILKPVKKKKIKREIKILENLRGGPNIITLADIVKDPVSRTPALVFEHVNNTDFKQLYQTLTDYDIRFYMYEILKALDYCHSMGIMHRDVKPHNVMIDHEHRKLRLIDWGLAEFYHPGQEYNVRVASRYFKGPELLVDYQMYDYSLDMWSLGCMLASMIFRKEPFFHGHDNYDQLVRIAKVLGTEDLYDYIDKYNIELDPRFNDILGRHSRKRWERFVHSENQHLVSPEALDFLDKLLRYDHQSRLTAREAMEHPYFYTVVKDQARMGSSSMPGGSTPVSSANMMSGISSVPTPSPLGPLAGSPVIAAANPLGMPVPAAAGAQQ
GI50 (HCT-116),IC50 [1],SMILES
30 nM,< 4000 nM,CC(=O)Nc1cc(Nc2cc(NC3CC3)n3ncc(C#N)c3n2)ccc1N(C)CCN(C)C
9 nM,–,CC(=O)Nc1cc(Nc2cc(NC3CC3)n3ncc(C#N)c3n2)ccc1N(C)CCN
